Measurements as given in patent US11311520B2, “Substituted dihydroimidazopyridinediones as MKNK1 and MKNK2 inhibitors” (Bayer Pharma Aktiengesellschaft, priority 2017, dated 2022).

Each compound was assayed against human full-length MKNK1 (Homo sapiens (Human), UniProt Q9BUB5, T344D) (assay: MKNK1 kinase high ATP assay (TR-FRET)). Conditions: 2 mM ATP, 15 min preincubation with enzyme, GST-MKNK1 (T344D).
Chain of human full-length MKNK1 (Q9BUB5 other isoform, or with tags, fused parts or gaps T344D): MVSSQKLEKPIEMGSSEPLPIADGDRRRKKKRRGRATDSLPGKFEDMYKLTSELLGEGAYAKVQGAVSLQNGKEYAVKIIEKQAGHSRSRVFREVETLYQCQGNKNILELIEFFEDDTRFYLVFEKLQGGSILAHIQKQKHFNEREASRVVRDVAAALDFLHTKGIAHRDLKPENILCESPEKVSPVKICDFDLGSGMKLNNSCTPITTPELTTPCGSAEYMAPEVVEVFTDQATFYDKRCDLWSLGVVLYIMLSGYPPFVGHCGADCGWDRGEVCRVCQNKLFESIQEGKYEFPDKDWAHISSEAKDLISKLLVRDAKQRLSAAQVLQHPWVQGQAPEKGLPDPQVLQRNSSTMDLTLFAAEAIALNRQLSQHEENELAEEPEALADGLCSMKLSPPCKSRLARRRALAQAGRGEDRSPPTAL
Assay type: biochemical
Protocol: MKNK1 Kinase High ATP Assay
MKNK1-inhibitory activity at high ATP of compounds of the present invention after their preincubation with MKNK1 was quantified employing the TR-FRET-based MKNK1 high ATP assay as described in the following paragraphs.
A recombinant fusion protein of Glutathione-S-Transferase (GST, N-terminally) and human full-length MKNK1 (amino acids 1-424 and T344D of accession number BAA 19885.1), expressed in insect cells using baculovirus expression system and purified via glutathione sepharose affinity chromatography, was purchased from Carna Biosciences (product no 02-145) and used as enzyme. As substrate for the kinase reaction the biotinylated peptide biotin-Ahx-IKKRKLTRRKSLKG (SEQ ID NO: 1) (C-terminus in amide form) was used, which can be purchased e.g. from the company Biosyntan (Berlin-Buch, Germany)
For the assay 50 nL of a 100 fold concentrated solution of the test compound in DMSO was pipetted into a black low volume 384 well microtiter plate (Greiner Bio-One, Frickenhausen, Germany), 2 μL of a solution of MKNK1 in aqueous assay buffer [50 mM HEPES pH 7.5, 5 mM MgCl2, 1.0 mM dithiothreitol, 0.005% (v/v) Nonidet-P40 (Sigma)] was added and the mixture was incubated for […] at 22° C. to allow pre-binding of the test compounds to the enzyme before the start of the kinase reaction. Then the kinase reaction was started by the addition of 3 μL of a solution of adenosine-tri-phosphate (ATP, 3.3 mM=>final conc. in the 5 μL assay volume is 2 mM) and substrate (0.1 μM=>final conc. in the 5 μL assay volume is 0.06 μM) in assay buffer and the resulting mixture was incubated for a reaction time of 30 min at 22° C. The concentration of MKNK1 was adjusted depending of the activity of the enzyme lot and was chosen appropriate to have the assay in the linear range, typical concentrations were in the range of 0.003 μg/mL. The reaction was stopped by the addition of 5 μL of a solution of TR-FRET detection reagents (5 nM streptavidine-XL665 [Cisbio Bioassays, Codolet, France] and 1 nM anti-ribosomal protein S6 (pSer236)-antibody from Invitrogen [#44921G] and 1 nM LANCE EU-W1024 labeled ProteinG [Perkin-Elmer, product no. AD0071]) in an aqueous EDTA-solution (100 mM EDTA, 0.1% (w/v) bovine serum albumin in 50 mM HEPES pH 7.5).
The resulting mixture was incubated for 1 h at 22° C. to allow the formation of complex between the phosphorylated biotinylated peptide and the detection reagents. Subsequently the amount of phosphorylated substrate was evaluated by measurement of the resonance energy transfer from the Eu-chelate to the streptavidine-XL. Therefore, the fluorescence emissions at 620 nm and 665 nm after excitation at 350 nm were measured in a TR-FRET reader, e.g. a Rubystar (BMG Labtechnologies, Offenburg, Germany) or a Viewlux (Perkin-Elmer). The ratio of the emissions at 665 nm and at […] was taken as the measure for the amount of phosphorylated substrate. The data were normalised (enzyme reaction without inhibitor=0% inhibition, all other assay components but no enzyme=100% inhibition).
In the case of Cc1cc(Nc2ncnc3c2ncn3CC(=O)O)c(=O)n2c1C(=O)NC21CCCCC1 [Example 48, {6-[(8′-Methyl-1′,5′-dioxo-1′,5′-dihydro-2′H-spiro[cyclohexane-1,3′-imidazo[1,5-a]pyridin]-6′-yl)amino]-9H-purin-9-yl}acetic acid], the IC50 is reported as 29.4 nM.
Work on Cc1cc(Nc2ncnc3c2ncn3CC(=O)N(C)C)c(=O)n2c1C(=O)NC21CCCCC1 [Example 49, N,N-Dimethyl-2-{6-[(8′-methyl-1′,5′-dioxo-1′,5′-dihydro-2′H-spiro[cyclohexane-1,3′-imidazo[1,5-a]pyridin]-6′-yl)amino]-9H-purin-9-yl}acetamide] yielded an IC50 of 490 nM.
Cc1cc(Nc2ncnc3c2ncn3CC(=O)N(C)CCN(C)C)c(=O)n2c1C(=O)NC21CCCCC1 [Example 50] gave an IC50 of 950 nM.
Cc1cc(Nc2ncnc3scnc23)c(=O)n2c1C(=O)NC21CCCCC1 [Example 51, 8′-Methyl-6′-([1,3]thiazolo[5,4-d]pyrimidin-7-ylamino)-2′H-spiro[cyclohexane-1,3′-imidazo[1,5-a]pyridine]-1′,5′-dione] gave an IC50 of 2.9 nM.
With Cc1cc(Nc2ncnc3occc23)c(=O)n2c1C(=O)NC21CCCCC1 [Example 52, 6′-(Furo[2,3-d]pyrimidin-4-ylamino)-8′-methyl-2′H-spiro[cyclohexane-1,3′-imidazo[1,5-a]pyridine]-1′,5′-dione] the IC50 was 13 nM.
Cc1cc(Nc2ncnc(NC(=O)C3CC3)n2)c(=O)n2c1C(=O)NC21CCCC1 [Example 53, N-{4-[(8′-Methyl-1′,5′-dioxo-1′,5′-dihydro-2′H-spiro[cyclopentane-1,3′-imidazo[1,5-a]pyridin]-6′-yl)amino]-1,3,5-triazin-2-yl}cyclopropanecarboxamide] was tested, and the IC50 was 2.4 nM.
Cc1cc(Nc2ncnc(N)n2)c(=O)n2c1C(=O)NC21CCCC1 [Example 54, 6′-[(4-Amino-1,3,5-triazin-2-yl)amino]-8′-methyl-2′H-spiro[cyclopentane-1,3′-imidazo[1,5-a]pyridine]-1′,5′-dione] showed an IC50 of 5.7 nM.
Cc1cc(Nc2ncnc3[nH]ccc23)c(=O)n2c1C(=O)NC21CCCC1 [Example 55, 8′-Methyl-6′-(7H-pyrrolo[2,3-d]pyrimidin-4-ylamino)-2′H-spiro[cyclopentane-1,3′-imidazo[1,5-a]pyridine]-1′,5′-dione] showed an IC50 of 0.3 nM.
For Cc1cc(Nc2ncnc3sccc23)c(=O)n2c1C(=O)NC21CCCC1 [Example 56, 8′-Methyl-6′-(thieno[2,3-d]pyrimidin-4-ylamino)-2′H-spiro[cyclopentane-1,3′-imidazo[1,5-a]pyridine]-1′,5′-dione], the IC50 was 0.1 nM.
For Cc1cc(Nc2ccnc3[nH]cnc23)c(=O)n2c1C(=O)NC21CCCCC1 [Example 57, 6′-(3H-Imidazo[4,5-b]pyridin-7-ylamino)-8′-methyl-2′H-spiro[cyclohexane-1,3′-imidazo[1,5-a]pyridine]-1′,5′-dione], the IC50 was 6.2 nM.
For Cc1cc(Nc2ncnc3sc(C(=O)O)cc23)c(=O)n2c1C(=O)NC21CCCC1 [Example 58, 4-[(8′-Methyl-1′,5′-dioxo-1′,5′-dihydro-2′H-spiro[cyclopentane-1,3′-imidazo[1,5-a]pyridin]-6′-yl)amino]thieno[2,3-d]pyrimidine-6-carboxylic acid], the IC50 was 18.8 nM.
With Cc1cc(Nc2ncnc3sc(C(=O)NCCN(C)C)cc23)c(=O)n2c1C(=O)NC21CCCC1 [Example 59, N-[2-(Dimethylamino)ethyl]-4-[(8′-methyl-1′,5′-dioxo-1′,5′-dihydro-2′H-spiro[cyclopentane-1,3′-imidazo[1,5-a]pyridin]-6′-yl)amino]thieno[2,3-d]pyrimidine-6-carboxamide] the IC50 was 2.7 nM.
Compound Cc1cc(Nc2ncnc3sc(C(=O)N(C)CCN(C)C)cc23)c(=O)n2c1C(=O)NC21CCCC1 [Example 60, N-[2-(Dimethylamino)ethyl]-N-methyl-4-[(8′-methyl-1′,5′-dioxo-1′,5′-dihydro-2′H-spiro[cyclopentane-1,3′-imidazo[1,5-a]pyridin]-6′-yl)amino]thieno[2,3-d]pyrimidine-6-carboxamide] has an IC50 of 6.3 nM.
Compound Cc1cc(Nc2ncnc3sc(C(=O)N4CC(C#N)C4)cc23)c(=O)n2c1C(=O)NC21CCCC1 [Example 61, 1-({4-[(8′-Methyl-1′,5′-dioxo-1′,5′-dihydro-2′H-spiro[cyclopentane-1,3′-imidazo[1,5-a]pyridin]-6′-yl)amino]thieno[2,3-d]pyrimidin-6-yl}carbonyl)azetidine-3-carbonitrile] has an IC50 of 5.9 nM.
Cc1cc(Nc2ncnc3sc(C(=O)N4CC(NC(=O)OC(C)(C)C)C4)cc23)c(=O)n2c1C(=O)NC21CCCC1 [Example 62, tert-Butyl [1-({4-[(8′-methyl-1′,5′-dioxo-1′,5′-dihydro-2′H-spiro[cyclopentane-1,3′-imidazo[1,5-a]pyridin]-6′-yl)amino]thieno[2,3-d]pyrimidin-6-yl}carbonyl)azetidin-3-yl]carbamate] was tested, and the IC50 was 4 nM.
With Cc1cc(Nc2ncnc3sc(C(=O)N4CC[C@@H](N(C)C)C4)cc23)c(=O)n2c1C(=O)NC21CCCC1 [Example 63, 6′-[(6-{[(3R)-3-(Dimethylamino)pyrrolidin-1-yl]carbonyl}thieno[2,3-d]pyrimidin-4-yl)amino]-8′-methyl-2′H-spiro[cyclopentane-1,3′-imidazo[1,5-a]pyridine]-1′,5′-dione] the IC50 was 3.8 nM.
Cc1cc(Nc2ncnc3sc(C(=O)N4CCC(N(C)C)CC4)cc23)c(=O)n2c1C(=O)NC21CCCC1 [Example 64, 6′-[(6-{[4-(Dimethylamino)piperidin-1-yl]carbonyl}thieno[2,3-d]pyrimidin-4-yl)amino]-8′-methyl-2′H-spiro[cyclopentane-1,3′-imidazo[1,5-a]pyridine]-1′,5′-dione] gave an IC50 of 5.5 nM.
Cc1cc(Nc2ncnc3sc(C(=O)N4C[C@H]5C[C@@H]4CO5)cc23)c(=O)n2c1C(=O)NC21CCCCC1 [Example 65, 8′-Methyl-6′-({6-[(1R,4R)-2-oxa-5-azabicyclo[2.2.1]hept-5-ylcarbonyl]thieno[2,3-d]pyrimidin-4-yl}amino)-2′H-spiro[cyclohexane-1,3′-imidazo[1,5-a]pyridine]-1′,5′-dione] gave an IC50 of 5.9 nM.
Work on Cc1cc(Nc2ncnc3sc(C(=O)N4C[C@@H]5C[C@H]4CO5)cc23)c(=O)n2c1C(=O)NC21CCCCC1 [Example 66, 8′-Methyl-6′-({6-[(1S,4S)-2-oxa-5-azabicyclo[2.2.1]hept-5-ylcarbonyl]thieno[2,3-d]pyrimidin-4-yl}amino)-2′H-spiro[cyclohexane-1,3′-imidazo[1,5-a]pyridine]-1′,5′-dione] yielded an IC50 of 9 nM.
Cc1cc(Nc2ncnc3[nH]cnc23)c(=O)n2c1C(=O)NC21CCCC1 [Example 67, 8′-methyl-6′-(9H-purin-6-ylamino)-2′H-spiro[cyclopentane-1,3′-imidazo[1,5-a]pyridine]-1′,5′-dione] was tested, and the IC50 was 0.7 nM.
With Cc1cc(Nc2ncnc3[nH]ncc23)c(=O)n2c1C(=O)NC21CCCC1 [Example 68, 8′-methyl-6′-(1H-pyrazolo[3,4-d]pyrimidin-4-ylamino)-2′H-spiro[cyclopentane-1,3′-imidazo[1,5-a]pyridine]-1′,5′-dione] the IC50 was 1.8 nM.
For Cc1cc(Nc2ncnc3c2CN(S(C)(=O)=O)C3)c(=O)n2c1C(=O)NC21CCCCC1 [Example 69, 8′-methyl-6′-{[6-(methylsulfonyl)-6,7-dihydro-5H-pyrrolo[3,4-d]pyrimidin-4-yl]amino}-2′H-spiro[cyclohexane-1,3′-imidazo[1,5-a]pyridine]-1′,5′-dione], the IC50 was 144 nM.
